What was measured:
[1] = Real time FT-IR curing performance in UViCure S105 at 365 and 385 nm; details: for Polymerization rate Rp/[M0]*100 / Final conversion: UViCure S105, 20 μm thickness, under air; for Final conversion: epoxide band; for cure speed compared with photoinitiators known from prior art such as Omnicat BL 550: LED lamp conditions, Example 2
Method: The curing performance of individual products prepared above was assessed using real time FT-IR measurement. The photoinitiators were dissolved in cycloaliphatic epoxy resin UViCure S105 (available from Sartomer) at the indicated wt % loading, applied onto the FT-IR measurement plate and irradiated with the indicated LED light source. The polymerization rate and final reactive group conversion were determined by monitoring the change of the relevant infrared band near 900 cm^−1 corresponding to an epoxide ring during irradiation. The molar extinction coefficients for the photoinitiator products (ε, expressed in M^−1 cm^−1) were determined in acetonitrile at 10^-3 M or 10^-5 M concentration.

[2] = Solubility in propylene carbonate at ambient temperature; assay type: physicochemical; details: 20-25° C.
Method: Solubility of selected sulfonium salts in propylene carbonate at ambient temperature (20-25° C.) was determined.

[3] = Colour index 'b' of formulations before and after polymerization; assay type: physicochemical; details: UViCure S105E, thin samples (20 μm), under air, 300 s irradiation
Method: The low yellowing characteristics can be measured by the Colour index ‘b’ value on cured films.
Formulations comprising the photoinitiators and neat UViCure S105E resin were prepared as described at example 2.

[4] = Real time FT-IR curing performance at 405 nm in UViCure S105/TMPTA (1:1); details: LED @405 nm (110 mW/cm^2), 20 μm thickness, laminated
Method: The curing performance of individual products prepared above was assessed using real time FT-IR measurement. The photoinitiators were dissolved either in neat trimethylolpropane triacrylate (TMPTA; available as SR351 from Sartomer) or in a 1:1 (w/w) mixture of TMPTA and UViCure S105 as indicated, applied onto the FT-IR measurement plate, laminated to prevent oxygen inhibition, and irradiated with the indicated LED light source. For the epoxy component, the polymerization rate and final reactive group conversion were determined by monitoring the change of the relevant infrared band near 900 cm^−1 corresponding to an epoxide ring. For the acrylate component, the C═C stretch band near 1625 cm^−1 was used.

[5] = Belt curing performance (thumb-twist depth cure) in UViCure S105E resin; details: 24 μm film, under air, PI 2 wt %
Method: The photoinitiators were dissolved either in neat UViCure S105E resin or a hybrid acrylate/epoxy resin (prepared by mixing 60 wt parts UViCure S105E, 15 wt parts UViCure S130 and 25 wt parts SR492; all product are available from Sartomer). Formulations were prepared by combining all materials in the given proportions and then stirring at 30-40° C. until the samples were fully homogeneous; the formulations were then allowed to cool to room temperature. For all experiments, the formulations were cured on Leneta Form 3N-31 gloss finish paper at 6 μm and 24 μm film thickness using a belt-cure instrument; the films were prepared using a K-bar. All films were then cured under an LED lamp at a given belt speed. ‘Depth cure’ for each formulation was assessed using the ‘thumb-twist’ test (where no visible mark is made when a thumb is pressed down firmly onto the coating with a twisting motion), and from the belt speed; the calculated cure speed (in m/min) is given.

[6] = LED @365 nm (120 W/cm^2), PI loading 1 wt % (Omnicat BL 550 4 wt %; Speedcure 938/CPTX 1/0.5 wt %)
[7] = LED 365 nm, 100% intensity (=70.1 mJ/cm^2), belt speed 40 m/min
[8] = LED 395 nm, 40 m/min, 100% intensity (=164.5 mJ/cm^2)

| Compound | Polymerization rate Rp/[M0]*100 [1, 6] | Final conversion ([1]; LED @365 nm (120 W/cm^2)) | Polymerization rate Rp/[M0]*100 ([1]; LED @385 nm (160 W/cm^2)) | Final conversion ([1]; LED @385 nm (160 W/cm^2)) | cure speed compared with photoinitiators known from prior art such as Omnicat BL 550 [1] | Solubility in propylene carbonate [2] | Colour index ‘b’ value After Polymerization ([3]; LED @365 nm (120 mW/cm^2)) | Colour index ‘b’ value Before Polymerization ([3]; LED @365 nm (120 mW/cm^2)) | Colour index ‘b’ value After Polymerization ([3]; LED @385 nm (160 mW/cm^2)) | Colour index ‘b’ value Before Polymerization ([3]; LED @385 nm (160 mW/cm^2)) | Acrylate Final conversion [4] | Acrylate Polymerization rate Rp/[M0]*100 [4] | Epoxy Final conversion [4] | Epoxy Polymerization rate Rp/[M0]*100 [4] | Cure speed in UViCure S105E resin [5, 7] | Cure speed in UViCure S105E resin [5, 8] |
| --- | --- | --- | --- | --- | --- | --- | --- | --- | --- | --- | --- | --- | --- | --- | --- | --- |
| CCc1cc(CC)c2sc3ccc([S+](c4ccc(C)cc4)c4ccc(C(=O)c5ccccc5)cc4)cc3c(=O)c2c1 (stereo not drawn) [Photoinitiator 4, (4-benzoylphenyl)(5,7-diethyl-9-oxo-9H-thioxanthen-2-yl)(4-methylphenyl)sulfonium Hexafluorophosphate] | 5.74 s⁻¹ | 25% | 4.80 s⁻¹ | 25% | higher cure speed | >47 wt % | 6.05 | 6.33 | 6.09 | 6.28 | 83% | 12.20 s⁻¹ | 45% | 6.29 s⁻¹ | 3.7 m/min | 5.2 m/min |
| CC(C)c1ccc2sc3ccc(-[s+]4c5ccccc5c(=O)c5cc(C(C)C)ccc54)cc3c(=O)c2c1 (stereo not drawn) [Photoinitiator 1, 9-oxo-10-[9-oxo-7-(propan-2-yl)-9H-thioxanthen-2-yl]-2-(propan-2-yl)-9H-thioxanthen-10-ium hexafluorophosphate] | 8.93 s⁻¹ | 35% | 8.89 s⁻¹ | 36% |  | >50 wt % | 8.81 | 6.38 | 8.71 | 6.13 | 83% | 10.57 s⁻¹ | 47% | 8.12 s⁻¹ | 12.2 m/min | 20.0 m/min |
| CCCOc1ccc(Cl)c2c(=O)c3cc(-[s+]4c5ccccc5c(=O)c5c(Cl)ccc(OCCC)c54)ccc3sc12 (stereo not drawn) [Photoinitiator 5, 1-chloro-10-(8-chloro-9-oxo-5-propoxy-9H-thioxanthen-2-yl)-9-oxo-4-propoxy-9H-thioxanthen-10-ium Hexafluorophosphate] | 6.57 s⁻¹ | 36% | 5.90 s⁻¹ | 39% | higher cure speed | 42 wt % | 4.92 | 5.02 | 4.91 | 5.35 | 70% | 6.03 s⁻¹ | 44% | 3.87 s⁻¹ | 13.3 m/min | 13.3 m/min |
| Cc1ccc([S+](c2ccc(C(=O)c3ccccc3)cc2)c2ccc3sc4ccc(C(C)C)cc4c(=O)c3c2)cc1 (stereo not drawn) [Photoinitiator 2, (4-benzoylphenyl)(4-methylphenyl)[9-oxo-7-(propan-2-yl)-9H-thioxanthen-2-yl]sulfonium Hexafluorophosphate] | 4.11 s⁻¹ | 41% | 5.96 s⁻¹ | 41% | higher cure speed | >48 wt % | 6.31 | 6.48 | 6.26 | 6.49 | 81% | 11.56 s⁻¹ | 45% | 6.12 s⁻¹ | 4.6 m/min | 10.0 m/min |

From patent US20260217983A1, “SULFONIUM SALT PHOTOINITIATORS AND METHODS OF LED CURING A COMPOSITION WITH SAID SULFONIUM SALT PHOTOINITIATORS” (ARKEMA FRANCE, priority 2022, published 2026)
